According to patent EP4389827A1, “AMINOGLYCOSIDE-LINKED PHOTOSENSITIZERS” (Centre National de la Recherche Scientifique, priority 2022, dated 2024):
Several values for one entry are separate records, joined by “and”; a condition that tells them apart may be missing. Equal values may be shown once. Read-outs that look alike come from different tables or passages of the source.

Legend:
[1] = system: S. aureus USA300 persister cells; assay: Antibacterial photodynamic therapy on persister cells; assay type: cell-based, Staphylococcus aureus; conditions: persister cells (6 hours, 2 mM neomycin); aPDT at 10 µM, 5 J/mm^2 (Figure 6a)
Protocol: Persister plateau and AG concentration varied from one species to another. In S. aureus USA300, a stable plateau was obtained following 6 hours of incubation with 2 mM of neomycin. […] This control is crucial to make sure that a persister state has been achieved. […] As there are no significant differences between irradiated and non-irradiated samples, however, the production of singlet oxygen may not be the factor leading to cell death. In S. aureus Newman, cells were treated for 24 hours with 1 mM of neomycin. […] Although this synergy does exist, like in S. aureus USA300, there is no significant difference in survival for irradiated and non-irradiated samples, except for Ce6.

S. aureus USA300 [2] = assay: Minimal inhibitory concentration (EUCAST), with or without 660 nm irradiation; assay type: cell-based; conditions: Staphylococcus aureus, USA300, light or radiation study, 18 h
Protocol: (§1) Acinetobacter baumannii DSM30011, Bacillus subtilis 168, Pseudomonas aeruginosa PA14, P. aeruginosa PAO1, Staphylococcus aureus Mu50, S. aureus Newman and S. aureus USA300 were all grown in MHB-CA at 37°C with an agitation of 180 rpm. Candida albicans SC5314 was grown in yeast extract peptone dextrose broth at 35°C with an agitation of 180 rpm.
(§2) Minimal inhibitory concentrations (MICs) for selected bacteria were investigated according to the EUCAST guidelines. Serial dilutions of the compounds, photosensitizers and aminoglycosides were made in MHB-CA in 384-well plates. Stationary-phase cells were diluted in MHB-CA to have a final concentration of 5.5 × 10^5 CFU/mL. Samples were incubated in the dark for 20 minutes at 37°C and either irradiated at 660 nm for 30 minutes with a LED device or kept in the dark. Irradiated samples received a total of 168 mJ/mm^2. Plates were then incubated at 37°C for 18 hours and MICs were evaluated visually. Triplicates were done and the synergy, or fractional inhibitory concentration (FIC), was calculated according to Doern et al., 2014: FIC = (MIC of AB)/(MIC of A) + (MIC of AB)/(MIC of B) [formula]

S. aureus Mu50 [3] = assay: as above; assay type: cell-based; conditions: Staphylococcus aureus, MU50, light or radiation study, 18 h, read-out: MIC
Protocol: as §1, §2

S. aureus Newman [4] = assay: as above; assay type: cell-based, Staphylococcus aureus; conditions: for MIC: Staphylococcus aureus, NEWMAN, light or radiation study, 18 h, read-out: MIC
Protocol: as §1, §2

P. aeruginosa PAO1 [5] = assay: as above; assay type: cell-based, Pseudomonas aeruginosa; conditions: for MIC: Pseudomonas aeruginosa, PAO1, light or radiation study, 18 h, read-out: MIC
Protocol: as §1, §2

A. baumannii DSM30011 [6] = assay: Antibacterial photodynamic therapy on biofilm cells; assay type: cell-based, Acinetobacter baumannii
From the text: (§3) Compounds Neo-Ce6 and Tobra-Ce6 caused strong drop in survival for biofilms of A. baumannii […], P. aeruginosa species and S. aureus Mu50. […] Tobra-Ce6 had its strongest effect on A. baumannii DSM30011 with more than 4 log10 CFU/mL drop in survival and a drop of 1.7 log10 CFU/mL in P. aeruginosa PA14. Table 2: aPDT results for biofilm cells expressed in drop in the log10 CFU/mL compared to controls.

S. aureus Newman [7] = assay: as above; assay type: cell-based, Staphylococcus aureus
From the text: as §3

S. aureus USA300 [8] = assay: as above; assay type: cell-based, Staphylococcus aureus
From the text: as §3

S. aureus Mu50 [9] = assay: as above; assay type: cell-based, Staphylococcus aureus
From the text: as §3

Solubility in water = assay type: physicochemical
S. aureus USA300 [10] = assay: Antibacterial photodynamic therapy on planktonic cells (CFU count); assay type: cell-based; conditions: Staphylococcus aureus, USA300, light or radiation study, 0.5 h, irradiated 660 nm 30 minutes, 5 J/mm^2, read-out: Mean CFU drop (survival dropped by)
Protocol: as §1
(§4) Cells were brought to stationary phase by incubating them in MHB-CA for at least 18 hours at 37°C with 180 rpm and diluted to an optical density of 1.0 just before the experiment. Cells were incubated for 20 minutes with either the compounds, photosensitizers alone, or aminoglycosides alone. Unless stated otherwise, a concentration of 10 µM was used for all experiments and samples were irradiated for 30 minutes at 660 nm with the Solis-660C lamp from ThorLabs, receiving a total of 5 J/mm^2. After illumination, cells were washed with phosphate-buffered saline (PBS) 1X, serially diluted and plated on Mueller-Hinton agar. The next day, colony forming units (CFUs) were counted.

S. aureus Newman [11] = assay: as above; assay type: cell-based, Staphylococcus aureus; conditions: Staphylococcus aureus, NEWMAN, light or radiation study, 0.5 h, 10 µM, irradiated 660 nm 30 minutes, 5 J/mm^2, read-out: Mean CFU drop (survival dropped by)
Protocol: as §1, §4

S. aureus Mu50 [12] = assay: as above; assay type: cell-based, Staphylococcus aureus; conditions: for log reduction at 10 µM: Staphylococcus aureus, MU50, light or radiation study, 0.5 h, irradiated 660 nm 30 minutes, 5 J/mm^2, read-out: Mean CFU drop (survival dropped by)
Protocol: as §1, §4

P. aeruginosa PA14 = assay: Antibacterial photodynamic therapy on biofilm cells; assay type: cell-based, Pseudomonas aeruginosa
From the text: as §3

P. aeruginosa PAO1 [13] = assay: as above; assay type: cell-based, Pseudomonas aeruginosa
From the text: as §3

A. baumannii DSM30011 [14] = assay: Minimal inhibitory concentration (EUCAST), with or without 660 nm irradiation; assay type: cell-based, Acinetobacter baumannii; conditions: for MIC: Acinetobacter baumannii, DSM30011, light or radiation study, 18 h, read-out: MIC
Protocol: as §1, §2

[15] = with (+) irradiation, 660 nm 30 minutes, 168 mJ/mm^2
[16] = conjugate with irradiation, from FIC

SMILES | persister cell survival (in words) [1] | MIC (S. aureus USA300 [2]; [15]) [µM] | MIC (S. aureus USA300 [2]; without (-) irradiation) [µM] | MIC (S. aureus Mu50 [3]; [15]) [µM] | MIC (S. aureus Mu50 [3]; without (-) irradiation) [µM] | MIC (S. aureus Newman [4]; [15]) [µM] | MIC (S. aureus Newman [4]; without (-) irradiation) [µM] | MIC (P. aeruginosa PAO1 [5]; [15]) [µM] | MIC (P. aeruginosa PAO1 [5]; without (-) irradiation) [µM] | drop in the log10 CFU/mL compared to controls (A. baumannii DSM30011 [6]; - irradiation) [log10 CFU/mL] | drop in the log10 CFU/mL compared to controls (S. aureus Newman [7]; + irradiation) [log10 CFU/mL] | drop in the log10 CFU/mL compared to controls (S. aureus Newman [7]; - irradiation) [log10 CFU/mL] | drop in the log10 CFU/mL compared to controls (S. aureus USA300 [8]; + irradiation) [log10 CFU/mL] | drop in the log10 CFU/mL compared to controls (S. aureus USA300 [8]; - irradiation) [log10 CFU/mL] | drop in the log10 CFU/mL compared to controls (S. aureus Mu50 [9]; + irradiation) [log10 CFU/mL] | drop in the log10 CFU/mL compared to controls (S. aureus Mu50 [9]; - irradiation) [log10 CFU/mL] | solubility (Solubility in water) | log reduction at 10 µM (S. aureus USA300 [10]) | log reduction at 10 µM (S. aureus Newman [11]) | log reduction at 10 µM (S. aureus Mu50 [12]) | also measured
C=Cc1c(C)c2cc3nc(c(CC(=O)O)c4[nH]c(cc5nc(cc1[nH]2)C(C)=C5CC)c(C)c4C(=O)O)[C@@H](CCC(=O)O)[C@@H]3C [Ce6, chlorin e6] | some killing | 16 to 32 | > 64 | 4 | > 64 | 64 | > 64 | > 64 | > 64 | 0.45 | 0.57 | -0.19 | 0.73 | 0.33 | 0.36 | -0.005 | poorly soluble in water | 3.2 | ~3.6 | 3.2 | drop in the log10 CFU/mL compared to controls (A. baumannii DSM30011 [6]; + irradiation): 0.71 log10 CFU/mL; drop in the log10 CFU/mL compared to controls (P. aeruginosa PA14; + irradiation): 0.60 log10 CFU/mL; drop in the log10 CFU/mL compared to controls (P. aeruginosa PA14; - irradiation): 0.29 log10 CFU/mL; drop in the log10 CFU/mL compared to controls (P. aeruginosa PAO1 [13]; + irradiation): 0.25 log10 CFU/mL; drop in the log10 CFU/mL compared to controls (P. aeruginosa PAO1 [13]; - irradiation): 0.28 log10 CFU/mL; MIC (A. baumannii DSM30011 [14]; [15]): > 64 µM; MIC (A. baumannii DSM30011 [14]; without (-) irradiation): > 64 µM
C=Cc1c(C)c2cc3nc(c(CC(=O)O)c4[nH]c(cc5nc(cc1[nH]2)C(C)=C5CC)c(C)c4C(=O)O)[C@@H](CCC(=O)NC[C@H]1O[C@H](O[C@@H]2[C@@H](O)[C@H](O[C@H]4O[C@H](CN)[C@@H](O)C[C@H]4N)[C@@H](N)C[C@H]2N)[C@H](O)[C@@H](N)[C@@H]1O)[C@@H]3C [Tobra-Ce6] | close to or under the detection limit | 2 to 4 | > 16 | 2 to 4 | 16 | 2 | > 16 | 4 to 8 | > 16 | 1.58 | 1.36 | 0.49 | 0.14 | 0.28 | 1.32 | 0.37 | highly soluble | 3.5 | ~3.9 | 5.4 | Synergy (S. aureus Newman [4]; [16]): +; Synergy (P. aeruginosa PAO1 [5]; [16]): -; survival (in words) (S. aureus Mu50 [12]; irradiated samples, 5 J/mm^2 (Figure 3a)): high bacterial death; drop in the log10 CFU/mL compared to controls (P. aeruginosa PA14; + irradiation): 1.7 log10 CFU/mL and 1.69 log10 CFU/mL; drop in the log10 CFU/mL compared to controls (P. aeruginosa PA14; - irradiation): 0.85 log10 CFU/mL; drop in the log10 CFU/mL compared to controls (P. aeruginosa PAO1 [13]; + irradiation): 1.25 log10 CFU/mL; drop in the log10 CFU/mL compared to controls (P. aeruginosa PAO1 [13]; - irradiation): 0.79 log10 CFU/mL; MIC (A. baumannii DSM30011 [14]; [15]): 2 to 4 µM; MIC (A. baumannii DSM30011 [14]; without (-) irradiation): > 16 µM; Synergy (A. baumannii DSM30011 [14]; [16]): +
